Measured values: ChEMBL document CHEMBL4219171, “Synthesis and investigations into the anticancer and antibacterial activity studies of β-carboline chalcones and their bromide salts” (Bioorg Med Chem Lett, 2018)
≈ marks a conversion by molar mass, not a printed value. Calls of active or inactive are those of the source. The calls are words filed in the database; no cut-off is given here.

Assays:
Bacillus subtilis [1] = experiment: Antibacterial activity against Bacillus subtilis MTCC 121 after 24 hrs by broth microdilution assay; format: functional; conditions: MTCC 121, 24 h
Escherichia coli = experiment: Antibacterial activity against Escherichia coli MTCC 1652 assessed as zone of inhibition measured after 18 hrs by disc diffusion method; format: functional
Enterobacter cloacae [2] = experiment: Antibacterial activity against Enterobacter cloacae NAIMCC-B-02025 assessed as zone of inhibition measured after 18 hrs by disc diffusion method; format: functional
Staphylococcus aureus [3] = experiment: Antibacterial activity against Staphylococcus aureus MTCC 96 assessed as zone of inhibition measured after 18 hrs by disc diffusion method; format: functional
Staphylococcus aureus [4] = experiment: Antibacterial activity against Staphylococcus aureus MTCC 96 after 24 hrs by broth microdilution assay; format: functional; conditions: MTCC 96, 24 h
Bacillus subtilis [5] = experiment: Antibacterial activity against Bacillus subtilis MTCC 121 assessed as zone of inhibition measured after 18 hrs by disc diffusion method; format: functional
Enterobacter cloacae [6] = experiment: Antibacterial activity against Enterobacter cloacae NAIMCC-B-02025 after 24 hrs by broth microdilution assay; format: functional; conditions: NAIMCC-B-02025, 24 h
NIH3T3 = experiment: Cytotoxicity against mouse NIH/3T3 cells after 48 hrs by MTT assay; format: cell-based; conditions: NIH3T3, 48 h
BXPC-3 = experiment: Cytotoxicity against human BxPC3 cells after 48 hrs by MTT assay; format: functional, cell-based; conditions: BXPC-3, 48 h
LNCaP C4-2 = experiment: Cytotoxicity against human C4-2 cells after 48 hrs by MTT assay; format: functional, cell-based; conditions: LNCaP C4-2, 48 h
HEK-293T = experiment: Cytotoxicity against human HEK293T cells after 48 hrs by MTT assay; format: cell-based
HeLa = experiment: Cytotoxicity against human HeLa cells after 48 hrs by MTT assay; format: functional, cell-based
MDA-MB-231 [7] = experiment: Cytotoxicity against human MDA-MB-231 cells after 48 hrs by MTT assay; format: functional, cell-based; conditions: MDA-MB-231, 48 h
PC-3 = experiment: Cytotoxicity against human PC3 cells after 48 hrs by MTT assay; format: functional, cell-based; conditions: PC-3, 48 h
Pseudomonas aeruginosa = experiment: Antibacterial activity against Pseudomonas aeruginosa MTCC 424 assessed as zone of inhibition measured after 18 hrs by disc diffusion method; format: functional
MDA-MB-231 [8] = experiment: Induction of apoptosis in human MDA-MB-231 cells assessed as morphological changes after 24 hrs by acridine orange/ethidium bromide-dual staining based fluorescence microscopic method; format: functional, cell-based

Row | Structure (SMILES) | MIC (Bacillus subtilis [1]) [µM] | inhibition zone (IZ) (Escherichia coli) [mm] | inhibition zone (IZ) (Enterobacter cloacae [2]) [mm] | inhibition zone (IZ) (Staphylococcus aureus [3]) [mm] | MIC (Staphylococcus aureus [4]) [µM] | inhibition zone (IZ) (Bacillus subtilis [5]) [mm] | MIC (Enterobacter cloacae [6]) [µM] | IC50 (NIH3T3) [µM] | IC50 (BXPC-3) [µM] | IC50 (LNCaP C4-2) [µM] | IC50 (HEK-293T) [µM] | IC50 (HeLa) [µM] | IC50 (MDA-MB-231 [7]) [µM] | IC50 (PC-3) [µM] | inhibition zone (IZ) (Pseudomonas aeruginosa) [mm] | Activity (MDA-MB-231 [8])
1 | CN(C)c1ccc(/C=C/C(=O)c2nccc3c2[nH]c2ccccc23)cc1 | 870 (≈ 297 µg/mL) | 8 | 8 | 11 | 715 (≈ 244 µg/mL) | 8 | 880 (≈ 300 µg/mL) |  |  |  |  |  |  |  |  | 
2 | COc1cc(/C=C/C(=O)c2nccc3c2[nH]c2ccccc23)cc(OC)c1OC |  |  | 10 | 7 | > 900 |  | 834 (≈ 324 µg/mL) | > 100 | 70.8 | 71.6 | 82.1 | 75.2 | 71.5 | > 100 |  | 
3 | O=C(/C=C/c1ccc(C(F)(F)F)cc1)c1nccc2c1[nH]c1ccccc12 |  | 10 | 11 | 11 | 710 (≈ 260 µg/mL) |  | 726 (≈ 266 µg/mL) |  |  |  |  |  |  |  |  | 
4 | CCCC[n+]1ccc2c([nH]c3ccccc32)c1C(=O)/C=C/c1ccc(OC)cc1.[Br-] |  |  |  | 9 |  |  |  | 74.6 | 50.8 | 38.8 | 35.2 | 45 | 40.9 | 65 |  | 
5 | O=C(/C=C/c1ccccc1)c1nccc2c1[nH]c1ccccc12 | 838 (≈ 250 µg/mL) |  |  |  |  | 9 |  | > 100 | 72 | 80.2 | 65.6 | 82.4 | 71.1 | 93 |  | 
6 | C#CC[n+]1ccc2c([nH]c3ccccc32)c1C(=O)/C=C/c1ccc(OC)cc1.[Br-] |  |  | 6 | 9 |  |  |  | > 100 | > 100 | > 100 | > 100 | > 100 | > 100 | > 100 | 7 | 
7 | CCCC[n+]1ccc2c([nH]c3ccccc32)c1C(=O)/C=C/c1cc(OC)c(OC)c(OC)c1.[Br-] |  | 8 | 10 | 10 | 812 |  | 806 | 68.6 | 25.1 | 39.6 | 34.4 | 35.6 | 32 | 40.1 | 12 | 
8 | Cc1ccc(/C=C/C(=O)c2nccc3c2[nH]c2ccccc23)cc1 | 720 (≈ 225 µg/mL) |  | 10 | 10 | 820 (≈ 256 µg/mL) | 12 | 828 (≈ 259 µg/mL) | > 100 | > 100 | > 100 | > 100 | > 100 | > 100 | > 100 |  | 
9 | COc1cccc2c1C(=O)c1c(O)c3c(c(O)c1C2=O)C[C@@](O)(C(=O)CO)C[C@@H]3O[C@H]1C[C@H](N)[C@H](O)[C@H](C)O1 [DOXORUBICIN] |  |  |  |  |  |  |  | 21.3 | 13.6 | 3.2 | 3.59 |  | 7.85 | 10.2 |  | Active
10 | COc1ccc(/C=C/C(=O)c2nccc3c2[nH]c2ccccc23)cc1 | 885 (≈ 291 µg/mL) |  | 9 | 12 | 733 (≈ 241 µg/mL) | 8 | 846 (≈ 278 µg/mL) | > 100 | > 100 | > 100 | > 100 | > 100 | > 100 | > 100 | 8 | 
11 | COc1cc(/C=C/C(=O)c2c3[nH]c4ccccc4c3cc[n+]2Cc2ccccc2)cc(OC)c1OC.[Br-] |  |  | 12 | 9 |  | 7 | 726 | 55.2 | 20 | 16.1 | 17.2 | 22.1 | 16 | 22 |  | Active
12 | O=C(/C=C/c1ccc2c(c1)OCO2)c1nccc2c1[nH]c1ccccc12 |  |  |  |  |  |  |  | > 100 | > 100 | > 100 | > 100 | > 100 | > 100 | > 100 |  | 
13 | C#CC[n+]1ccc2c([nH]c3ccccc32)c1C(=O)/C=C/c1ccc2c(c1)OCO2.[Br-] |  |  | 6 | 9 |  | 7 |  | 72.1 | 30.1 | 24.4 | 19.1 | 25.3 | 21.2 | 29.6 | 7 | 
14 | CCCC[n+]1ccc2c([nH]c3ccccc32)c1C(=O)/C=C/c1ccc2c(c1)OCO2.[Br-] |  |  |  | 9 |  | 7 |  | > 100 | > 100 | > 100 | > 100 | > 100 | > 100 | > 100 |  | 
15 | O=C(/C=C/c1ccc2c(c1)OCO2)c1c2[nH]c3ccccc3c2cc[n+]1Cc1ccccc1.[Br-] |  |  | 8 | 7 |  | 6 |  | 82.2 | 55.3 | 42.1 | 55.1 | 45.2 | 48.2 | 79 |  | 
16 | C#CC[n+]1ccc2c([nH]c3ccccc32)c1C(=O)/C=C/c1cc(OC)c(OC)c(OC)c1.[Br-] |  |  | 13 | 9 |  |  | 590 | 88 | 72 | 65.5 | 55.1 | 70.1 | 59.6 | 61 | 9 | 
17 | O=C(N[C@H](CO)[C@H](O)c1ccc([N+](=O)[O-])cc1)C(Cl)Cl [CHLORAMPHENICOL] | 32 (≈ 10.3 µg/mL) | 22 | 20 | 22 | 17 (≈ 5.49 µg/mL) | 22 | 24 (≈ 7.76 µg/mL) |  |  |  |  |  |  |  | 21 | 
18 | COc1ccc(/C=C/C(=O)c2c3[nH]c4ccccc4c3cc[n+]2Cc2ccccc2)cc1.[Br-] | 875 | 8 | 8 | 15 | 440 | 8 | 874 | 85.3 | 50.2 | 65.5 | 41.4 | 60.1 | 52.2 | 88.3 |  | 
